{"source": "ChEMBL document CHEMBL3228017", "about": "“Apparent bioisosteric replacement of--S--by NCN: synthesis of N--cyano-2-aza-A-nor-5alpha-androstan-17beta-ol acetate, an aza steroid androgen” (1979)", "key": {"[1]": {"species": "Rattus norvegicus", "experiment": "Androgenic activity in rat assessed as increase of ventral prostate weight (reference value: 18.1 +/- 0.91 mg)", "format": "functional, Prostate gland"}, "[2]": {"species": "Rattus norvegicus", "experiment": "Androgenic activity in rat assessed as increase in final body weight (reference value: 98 g)", "format": "functional"}, "[3]": {"species": "Rattus norvegicus", "experiment": "Androgenic activity in rat assessed as increase of seminal vesicle weight (reference value: 11.4 +/- 0.38 mg)", "format": "functional"}, "[4]": {"species": "Rattus norvegicus", "experiment": "Myotrophic activity in rat assessed as increase of levator ani weight (reference value: 32.2 +/- 1.82 mg)", "format": "functional"}, "[5]": {"species": "Rattus norvegicus", "experiment": "Androgenic activity in rat assessed as increase of seminal vesicle weight at 3 mg (reference value: 11.4 +/- 0.38 mg)", "format": "functional"}, "[6]": {"species": "Rattus norvegicus", "experiment": "Myotrophic activity in rat assessed as increase of levator ani weight at 3 mg in presence of testosterone (reference value: 32.2 +/- 1.82 mg)", "format": "functional"}, "[7]": {"species": "Rattus norvegicus", "experiment": "Antiandrogenic activity in rat assessed as reduction in seminal vesicle weight at 3 mg", "format": "functional, organism-based"}, "[8]": {"species": "Rattus norvegicus", "experiment": "Myotrophic activity in rat assessed as increase of levator ani weight at 3 mg (reference value: 32.2 +/- 1.82 mg)", "format": "functional"}, "[9]": {"species": "Rattus norvegicus", "experiment": "Androgenic activity in rat assessed as increase of seminal vesicle weight at 3 mg in presence of testosterone (reference value: 11.4 +/- 0.38 mg)", "format": "functional"}, "[10]": {"species": "Rattus norvegicus", "experiment": "Androgenic activity in rat assessed as increase of ventral prostate weight at 3 mg (reference value: 18.1 +/- 0.91 mg)", "format": "functional, Prostate gland"}, "[11]": {"species": "Rattus norvegicus", "experiment": "Antiandrogenic activity in rat assessed as reduction in ventral prostate weight at 3 mg", "format": "functional, organism-based", "conditions": "Prostate gland"}, "[12]": {"species": "Rattus norvegicus", "experiment": "Androgenic activity in rat assessed as increase in final body weight at 3 mg in presence of testosterone (reference value: 98 g)", "format": "functional"}, "[13]": {"species": "Rattus norvegicus", "experiment": "Antimyotrophic activity in rat assessed as reduction in levator ani weight at 3 mg", "format": "functional, organism-based"}, "[14]": {"species": "Rattus norvegicus", "experiment": "Androgenic activity in rat assessed as increase in final body weight at 3 mg (reference value: 98 g)", "format": "functional"}, "[15]": {"species": "Rattus norvegicus", "experiment": "Androgenic activity in rat assessed as increase of ventral prostate weight at 3 mg in presence of testosterone (reference value: 18.1 +/- 0.91 mg)", "format": "functional, Prostate gland"}, "[16]": {"species": "Rattus norvegicus", "experiment": "Androgenic activity in rat assessed as increase of ventral prostate weight at 0.3 mg (reference value: 18.1 +/- 0.91 mg)", "format": "functional, Prostate gland"}, "[17]": {"species": "Rattus norvegicus", "experiment": "Myotrophic activity in rat assessed as increase of levator ani weight at 0.3 mg (reference value: 32.2 +/- 1.82 mg)", "format": "functional"}, "[18]": {"species": "Rattus norvegicus", "experiment": "Androgenic activity in rat assessed as increase in final body weight at 0.3 mg (reference value: 98 g)", "format": "functional"}, "[19]": {"species": "Rattus norvegicus", "experiment": "Androgenic activity in rat assessed as increase of seminal vesicle weight at 0.3 mg (reference value: 11.4 +/- 0.38 mg)", "format": "functional"}}, "note": "Active and inactive are the calls of the source. No cut-off for these calls is given here.", "data": [{"smiles": "CC(=O)O[C@H]1CC[C@H]2[C@@H]3CC[C@H]4CN(Cc5ccccc5)C[C@]4(C)[C@H]3CC[C@]12C", "values": [{"measurement": "Activity", "setting": "[1]", "result": 19.4, "unit": "mg"}, {"measurement": "Activity", "setting": "[2]", "result": 89, "unit": "g"}, {"measurement": "Activity", "setting": "[3]", "result": 10.7, "unit": "mg"}, {"measurement": "Activity", "setting": "[4]", "result": 24.2, "unit": "mg"}]}, {"smiles": "CC(=O)O[C@H]1CC[C@H]2[C@@H]3CC[C@H]4CN(C#N)C[C@]4(C)[C@H]3CC[C@]12C", "values": [{"measurement": "Activity", "setting": "[5]", "result": 33.3, "unit": "mg"}, {"measurement": "Activity", "setting": "[6]", "result": 58.7, "unit": "mg"}, {"measurement": "inhibition", "setting": "[7]", "result": "inactive"}, {"measurement": "Activity", "setting": "[8]", "result": 55.8, "unit": "mg"}, {"measurement": "Activity", "setting": "[9]", "result": 40.6, "unit": "mg"}, {"measurement": "Activity", "setting": "[10]", "result": 56.1, "unit": "mg"}, {"measurement": "inhibition", "setting": "[11]", "result": "inactive"}, {"measurement": "Activity", "setting": "[12]", "result": 99, "unit": "g"}, {"measurement": "inhibition", "setting": "[13]", "result": "inactive"}, {"measurement": "Activity", "setting": "[14]", "result": 95, "unit": "g"}, {"measurement": "Activity", "setting": "[15]", "result": 61.6, "unit": "mg"}]}, {"smiles": "C[C@]12CC[C@H]3[C@@H](CCC4=CC(=O)CC[C@@]43C)[C@@H]1CC[C@@H]2O", "note": "[TESTOSTERONE]", "values": [{"measurement": "Activity", "setting": "[16]", "result": 35.3, "unit": "mg"}, {"measurement": "Activity", "setting": "[17]", "result": 37.8, "unit": "mg"}, {"measurement": "Activity", "setting": "[18]", "result": 97, "unit": "g"}, {"measurement": "Activity", "setting": "[19]", "result": 12.9, "unit": "mg"}]}]}
